Data as given in patent US20150079029A1, “METHODS AND COMPOSITIONS FOR INHIBITING ANGIOGENESIS” (Oncology Research International Limited, priority 2006, published 2015).

What was measured:
[1] = tested on: angiogenesis induced by bFGF in angiosponges; assay: AngioSponge assay: bFGF-induced neovascularisation of implanted gelfoam, CD31 staining; assay type: in vivo, C3H/Hej mice; details: i.p. once daily for 10 days, dioscin 10, deltonin 10, trillin 60, prosapogenin A 20, sorafenib 60 mg/kg; for Average number of blood vessels (CD31 counts): sponges excised Day 11
Description: The AngioSponge™ assay enables slow release of agarose-captured growth factor, which stimulates endothelial cell proliferation and migration, and provides a tissue-like matrix for neovascularisation. The assay can be therefore be used to gauge the efficacy of treatments designed to inhibit angiogenesis, determined by counting blood vessels after CD31 immunohistochemical staining of endothelial cells (McCarty et al, International Journal of Oncology, 21:5-10, 2002).
Gelfoams (Pharmacia & Upjohn) were cut into approximately 7×7×7 mm pieces, under sterile conditions, and pre-soaked over night with sterile phosphate buffered saline. The hydrated gelfoams were then partially dried. Growth factor (bFGF) was diluted to an initial concentration of 2 μg/mL in warm (37° C.) 0.4% agarose. The partially dried gelfoams were placed in the growth factor solution, or in warm 0.4% agarose without growth factor, and then transferred to a Petri dish containing warm 0.4% agarose (1:1 dilution, final growth factor concentration 1 μg/mL) for polymerisation and solidification.
70 female C3H/Hej mice were microchipped, weighed and randomised based on body weight into 7 groups with 10 mice per group. For implantation, the mice were anaesthetised by halothane inhalation. A small channel forged with a trocar needle between the 3rd and 4th mammary gland, the sponge was inserted to the full depth of the channel and the incision closed with a wound clip.
The compounds were formulated in N-methylpyrrolidone (NMP):PEG300:Water (1:9:10, v/v). Dosing was established on the basis of in vitro IC50 data and preliminary toxicity studies. Compounds were administered daily by intraperitoneal injection, at a dosing volume of 10 mL/kg, once daily for the study period as shown in Table 5.
Treatment was started when all the animals had recovered fully from anaesthesia, and continued for 10 days. On Day 11, the angiosponges were excised and snap frozen in liquid nitrogen with OCT for CD31 staining on frozen sections.
CD31/PECAM-1 is an antigen present specifically on endothelial cells and can therefore be used as a marker for blood vessels. Frozen samples of the sponge were cryo-sectioned (12 μm), mounted on positively-charged Plus slides (Fisher Scientific), and air-dried for 30 minutes. Frozen sections were in turn fixed in cold acetone, acetone/chloroform (1:1, v/v), and acetone for 5 min each, and then washed with PBS (phosphate buffer saline). After blocking with PBS containing 5% normal horse serum and 1% normal goat serum, sections were incubated with PECAM-1 monoclonal rat anti-mouse CD31 antibody (1:5000 in blocking solution, PharMingen, San Diego, Calif.) for 4 hours at room temperature. The slides were then washed three times with PBS and incubated with adequate secondary anti-rat antibody. Positive reactions were visualized by incubating the slides in stable 3,3′-diaminobenzidine for 5-10 min. The sections were rinsed with distilled water, counter-stained with Gill's haematoxylin for 1 min, and mounted with Universal Mount (Research Genetics). […] Mouse placenta was used as a positive control. For quantification, 3 independent visual fields were chosen and positive stained spots or vessels with lumen were counted.
The Percent Induction for a treatment is the difference in CD31 counts between the treatment (+bFGF) and the vehicle alone (no bFGF), divided by the difference in CD31 counts between the vehicle with bFGF and the vehicle alone (no bFGF), expressed as a percentage.

[2] = tested on: angiogenesis induced by bFGF in angiochambers; assay: AngioChamber assay: bFGF-induced fibrous capsule formation and haemoglobin (Drabkin) blood content; assay type: in vivo, FvB mice; details: i.p. once daily for 5 days, dioscin 10, deltonin 10, trillin 60, prosapogenin A 20, sorafenib 60 mg/kg; for Average blood content (from haemoglobin content): Drabkin assay; for Average chamber weight: wet weight on Day 6
Description: The AngioChamber™ assay utilises the normal physiological process of wound healing, which promotes the formation of a fibrous capsule around an implanted chamber (Wood et al, (2000) Cancer Research, 60(8):2178-89). The inclusion of bFGF in the chamber induces blood vessel development in the fibrous capsule. The assay therefore assesses the efficacy of treatments by gauging their effect both on the fibrous capsule formation, measured by the wet weight of the capsule at the termination of the study and by determination of blood vessel supply to the chamber by assaying for haemoglobin content. The haemoglobin content of the fibrous capsule is a measure of neovascularisation, which is assayed by the Drabkin Assay.
The angiochambers were porous tissue chambers made of perfluoro-alkoxy-Teflon and filled with 0.8% agar containing 20 IU/mL heparin, with or without 1 μg/mL human bFGF. Both ends of the chamber were sealed with removable caps of the same material. The chambers were filled under sterile conditions with 0.8% agar containing 20 IU/mL heparin, with or without 1 μg/mL human bFGF. The agarose solution was maintained at 37° C. prior to filling the chambers.
70 female FvB mice were microchipped, weighed and randomised based on body weight into 7 groups with 10 mice per group. For implantation, the mice were anaesthetised by halothane inhalation. Approximately 150 μL sterile filtered air was injected subcutaneously in the back of each mouse, between the shoulder blades, resulting in an air pocket in which a small incision was made and the chamber inserted. The wound was closed with two 1.4 mm wound clips.
The treatments, which were all formulated in NMP:PEG300:Water (1:9:10, v/v) and administered daily by intraperitoneal injection, were as given in the Table 7:
Treatment was started when all the animals had recovered fully from anaesthesia, and continued for 5 days. On Day 6, the vascularised fibrous chambers were removed and the wet weight recorded for each implant. The chamber from each mouse was then snap frozen with liquid nitrogen and stored at −20° C. until assessed for haemoglobin content.
The fibrous capsule samples were thawed and kept on ice during the procedure. Sterile water was added to each thawed sample, and the sample homogenised with an UltraTourax at high speed. To avoid cross-contamination, the UltraTourax was flushed for 30 seconds with 5 mL distilled water after homogenising each sample. The homogenate was transferred into 2 mL Eppendorf tubes and stored on ice. The Eppendorf tubes were centrifuged at 4° C. and high speed (14,000 relative centrifugal force (RCF)) for 60 min. 1.0-1.5 mL of the intermediate aqueous solution (homogenate), between the pellet and the fat layer, was then transferred to fresh labelled 1.5 mL Eppendorf tubes and stored on ice. 50 μL of each homogenate was transferred into separate wells of a 96-well plate. 50 μL of water was transferred into 2 wells as blanks. 50 μL of Drabkin's reagent was then added to each well and mixed. After 15 min incubation at room temperature, the absorbance of each sample at 540 nm was measured and the volume of blood for each sample calculated from a standard curve.
The Percent Induction for a treatment is the difference in blood content between the treatment (+bFGF) and the vehicle alone (no bFGF), divided by the difference in blood content between the vehicle with bFGF and the vehicle alone (no bFGF), expressed as a percentage.

SMILES	Percent Induction (CD31 counts relative to vehicle + bFGF minus vehicle alone) [1] [%]	Average number of blood vessels (CD31 counts) [1]	Percent Induction (blood content relative to vehicle + bFGF minus vehicle alone) [2] [%]	Average blood content (from haemoglobin content) [2] [µL]	Average chamber weight [2] [g]
C[C@@H]1CC[C@@]2(OC1)O[C@H]1C[C@H]3[C@@H]4CC=C5C[C@@H](O[C@@H]6O[C@H](CO)[C@@H](O[C@@H]7O[C@@H](C)[C@H](O)[C@@H](O)[C@H]7O)[C@H](O)[C@H]6O[C@@H]6O[C@@H](C)[C@H](O)[C@@H](O)[C@H]6O)CC[C@]5(C)[C@H]4CC[C@]3(C)[C@H]1[C@@H]2C [Dioscin, diosgenin Rha2, [Rha4], Glc]	49	35	45	1.24	0.131
C[C@@H]1CC[C@@]2(OC1)O[C@H]1C[C@H]3[C@@H]4CC=C5C[C@@H](O[C@@H]6O[C@H](CO)[C@@H](O)[C@H](O)[C@H]6O[C@@H]6O[C@@H](C)[C@H](O)[C@@H](O)[C@H]6O)CC[C@]5(C)[C@H]4CC[C@]3(C)[C@H]1[C@@H]2C [Prosapogenin A, diosgenin Rha2, Glc]	29	21	84	1.92	0.389
CNC(=O)c1cc(Oc2ccc(NC(=O)Nc3ccc(Cl)c(C(F)(F)F)c3)cc2)ccn1 [Sorafenib, reference compound]	3	2	27	0.92	0.322
C[C@@H]1CC[C@@]2(OC1)O[C@H]1C[C@H]3[C@@H]4CC=C5C[C@@H](O[C@@H]6O[C@H](CO)[C@@H](O)[C@H](O)[C@H]6O)CC[C@]5(C)[C@H]4CC[C@]3(C)[C@H]1[C@@H]2C [Trillin, diosgenin-Glc]	57	41	58	1.46	0.421
